Reference: publication PMC12526022, “Synthesis of First Copper Metal Complex of C=C Extended Curcuminoid Analogue: Structure, β-Cyclodextrin Association, and Biological Properties” (Molecules, 2025)

Key:
[1] = target: α-glucosidase; parameters: method as in PMID 16387392, doi:10.1016/j.kjs.2024.100312; settings: literature values for comparison; read-out: α-glucosidase inhibitory activity IC50; cited from earlier work
[2] = target: T1, yeast α-glucosidase (Saccharomyces cerevisiae, UniProt P53341); experiment: Inhibition of yeast α-glucosidase (p-nitrophenyl-α-D-glucopyranoside substrate, OD 405 nm); type: biochemical; settings: for D.O. 405 nm / Inhibition (%): mean ± SEM; for IC50: mean ± standard error of the mean, n = 3-5, read-out: Yeast α-glucosidase inhibition, half-maximal inhibitory concentration (IC50)
T1 construct: purchased Sigma Aldrich G5003-100UN
Experimental: The inhibition of α-glucosidase was evaluated using a previously adapted method. Briefly, a solution (25 µL) of tested samples in DMSO-H2O 1:1 was added to 150 µL of phosphate buffer (PBS, 67 mM, pH 6.8) and incubated at 37 °C for 10 min with 25 µL of reduced glutatione (3 mM in PBS) and 25 µL of α-glucosidase type I solution (0.2 U/mL in PBS, CAS G5003-100UN) (Sigma Aldrich, Toluca, Estado de México, Mexico). Subsequently, 25 µL of the substrate solution (23.2 mM p-nitrophenyl-α-D-glucopyranoside, CAS N1377-1G, in PBS) (Sigma Aldrich, Toluca, Estado de México, Mexico) was added, and the mixture was incubated at 37 °C for 15 min under shaking. The reaction mixture was stopped by the addition of a […] 1M solution (50 µL), followed by agitation for 5 min. […] The percentage of inhibition was calculated according to the following equation:Inhibition (%) = [(Acontrol − Asample)/Acontrol] × 100 where A is the absorbance at 405 nm of the sample and the control.
Table S5. Inhibition of yeast α-glucosidase. Determination of half-maximal inhibitory concentration […]
Values represent the mean of three to five independent experiments ± standard error of the mean.
Data were examined by analysis of variance (ANOVA) followed by Dunnett's test to determine groups with significant differences. Values of p ≤0.05 (*) and p ≤ 0.01 (**) were considered significant differences from the control.

[3] = test system: PC-3 prostate cancer cells; experiment: Sulforhodamine B antiproliferative assay, PC-3; type: cell-based; settings: PC-3, 10 µM, vehicle DMSO, 48 h, NA: no activity
Experimental: (§1) Antiproliferative activity was evaluated by Sulforhodamine B assay against colon cancer (HCT-15), breast cancer (MCF-7), leukaemia ([…]), central nervous system glial (U-251), and prostate cancer (PC-3) cell lines, which the National Cancer Institute supplied. The cell lines were cultured in RPMI-1640 medium supplemented with 10% fetal bovine serum, 2 mM L-glutamine, […] penicillin G, 100 µg/mL streptomycin sulfate, and 0.25 µg/mL amphotericin B Gibco (Thermo Fisher Scientific, Grand Island, NY, USA). They were incubated at 37 °C in an atmosphere of 5% CO2 and 95% humidity. For the assay, cells were suspended in a 0.1% trypsin-EDTA solution (Gibco). Cell viability was counted using a hematocytometer and diluted with medium to achieve the following densities: 5 × 10^4 cells/mL (SKLU-1, K562) and 7.5 × 10^4 cells/mL (U251, PC-3). […]
(§2) After 24 h, the cells were treated with 100 µL of the compounds to be evaluated, previously dissolved in RPMI-1640 medium and 1% DMSO, and then incubated for 48 h at 37 °C in a 5% CO2 atmosphere. […]
(§3) After 48 h, the adherent cells were fixed by adding 50 µL of a cold 50% (m/vol) […] solution and incubated at 4 °C for 60 min. […] The optical density of the treated samples was determined in a Bio Kinetics microplate reader at a wavelength of 515 nm (Synergy HT, BioTek, Winooski, VT, USA). […]

[4] = test system: HCT-15 colon cancer cells; experiment: Sulforhodamine B antiproliferative assay, HCT-15; type: cell-based; settings: HCT-15, 10 µM, vehicle DMSO, 48 h, NA: no activity
Experimental: as §1, §2, §3

[5] = test system: MCF-7 breast cancer cells; experiment: Sulforhodamine B antiproliferative assay, MCF-7; type: cell-based; settings: MCF-7, 10 µM, vehicle DMSO, 48 h, NA: no activity
Experimental: as §1, §2, §3

[6] = test system: SKLU-1 lung cancer cells; experiment: Sulforhodamine B antiproliferative assay, SKLU-1; type: cell-based; settings: SKLU-1, 10 µM, vehicle DMSO, 48 h, NA: no activity
Experimental: as §1, §2, §3

[7] = test system: COS-7 monkey kidney fibroblast; experiment: Sulforhodamine B assay, COS7 healthy cells; type: cell-based; settings: 10 µM, vehicle DMSO, 48 h
[8] = Solubility in polar solvents (observation); type: physicochemical

T1 sequence (P53341 whole entry): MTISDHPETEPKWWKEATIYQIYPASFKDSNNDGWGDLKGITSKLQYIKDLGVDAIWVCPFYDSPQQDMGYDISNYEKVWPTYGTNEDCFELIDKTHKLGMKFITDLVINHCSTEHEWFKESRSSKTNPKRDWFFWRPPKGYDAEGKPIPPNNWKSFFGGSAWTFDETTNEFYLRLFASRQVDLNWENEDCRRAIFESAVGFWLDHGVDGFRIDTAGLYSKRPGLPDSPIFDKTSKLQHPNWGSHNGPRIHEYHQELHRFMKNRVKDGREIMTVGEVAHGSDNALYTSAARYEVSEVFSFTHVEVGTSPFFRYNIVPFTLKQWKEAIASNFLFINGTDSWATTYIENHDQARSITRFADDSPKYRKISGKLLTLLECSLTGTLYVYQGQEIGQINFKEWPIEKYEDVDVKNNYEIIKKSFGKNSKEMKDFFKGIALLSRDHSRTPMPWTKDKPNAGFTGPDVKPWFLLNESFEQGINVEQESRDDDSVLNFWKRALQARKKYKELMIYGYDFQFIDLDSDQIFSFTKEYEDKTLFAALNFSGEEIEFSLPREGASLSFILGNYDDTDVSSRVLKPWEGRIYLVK

| Structure (SMILES) | IC50 [1] | inhibition at 10 µM [2] | inhibition at 17.78 µM [2] | inhibition at 31.62 µM [2] | inhibition at 56.23 µM [2] | inhibition at 100 µM [2] | D.O. 405 nm ([2]; 10 µM) | D.O. 405 nm ([2]; 17.78 µM) | D.O. 405 nm ([2]; 31.62 µM) | D.O. 405 nm ([2]; 56.23 µM) | D.O. 405 nm ([2]; 100 µM) | IC50 [2] | Cellular growth inhibition (%) [7] | Solubility in polar solvents (in words) [8] | D.O. 405 nm ([2]; 1 µM) | further results |
| --- | --- | --- | --- | --- | --- | --- | --- | --- | --- | --- | --- | --- | --- | --- | --- | --- |
| COc1cc(/C=C/C(O)=C/C(=O)/C=C/c2ccc(O)cc2)ccc1O [demetoxicurcumin] | 82.4 µM | – | – | – | – | – | – | – | – | – | – | – | – | – | – | – |
| O=C(/C=C(O)/C=C/C=C/c1ccccc1)/C=C/C=C/c1ccccc1 [Compound 2] | – | 7.61 ± 2.8% | 16.9 ± 3.75% | 31.6 ± 6.86% | 66.3 ± 10.2% | 86.9 ± 7.53% | 1.205±0.051 | 1.084±0.067 | 0.894±0.105 | 0.446±0.147 | 0.174±0.105 | 45.6 µM | 7.35% | poor solubility | – | inhibition at 10 µM ([3]; read-out: Cellular growth inhibition (%)): 11.8%; inhibition at 10 µM ([4]; Homo sapiens, read-out: Cellular growth inhibition (%)): 15.9%; inhibition at 10 µM ([5]; Homo sapiens, MCF7, read-out: Cellular growth inhibition (%)): 11.5%; inhibition at 10 µM ([6]; Homo sapiens, SK-LU-1, read-out: Cellular growth inhibition (%)): 7.45% |
| O=C(C=CC=Cc1ccccc1)C=C([O-])C=CC=Cc1ccccc1.O=C(C=CC=Cc1ccccc1)C=C([O-])C=CC=Cc1ccccc1.[Cu+2] [Compound 3] | – | – | – | – | – | – | 1.226±0.025 | – | – | – | 1.071±0.044 | > 100 µM | 15.49% | poor solubility | 1.314±0.041 | α-glucosidase inhibitory activity (in words) [2]: no inhibition activity at high concentrations; Inhibition (%) ([2]; 1 µM): -2.68±1.55%; Inhibition (%) ([2]; 10 µM): 4.11±1.43%; Inhibition (%) ([2]; 100 µM): 16.19 ± 3.18%; Cellular growth inhibition (%) [3]: 1.95%; Cellular growth inhibition (%) [4]: 12.04%; Cellular growth inhibition (%) [5]: 12.35%; Cellular growth inhibition (%) [6]: 0.58% |
| O=c1c(O)c(-c2ccc(O)c(O)c2)oc2cc(O)cc(O)c12 [Quercetin, quercetin, reference compound] | – | 16.2 ± 2.95% | 36.9 ± 1.16% | 59.1 ± 0.88% | 72.2 ± 1.55% | – | 1.142±0.064 | 0.861±0.044 | 0.556±0.019 | 0.376±0.016 | – | – | – | – | – | inhibition at 5.62 µM [2]: 6.31 ± 2.5%; D.O. 405 nm ([2]; 5.62 µM): 1.276±0.063 |
| OC[C@H]1O[C@@H]2O[C@H]3[C@H](O)[C@@H](O)[C@@H](O[C@H]4[C@H](O)[C@@H](O)[C@@H](O[C@H]5[C@H](O)[C@@H](O)[C@@H](O[C@H]6[C@H](O)[C@@H](O)[C@@H](O[C@H]7[C@H](O)[C@@H](O)[C@@H](O[C@H]8[C@H](O)[C@@H](O)[C@@H](O[C@H]1[C@H](O)[C@H]2O)O[C@@H]8CO)O[C@@H]7CO)O[C@@H]6CO)O[C@@H]5CO)O[C@@H]4CO)O[C@@H]3CO [BCD, β-cyclodextrin] | – | 1.11 ± 4.12% | – | – | – | 2.31 ± 3.94% | 1.261±0.022 | – | – | – | 1.246±0.019 | – | – | – | 1.275±0.028 | inhibition at 1 µM [2]: 0.2 ± 3.02% |
| O=C(/C=C/c1ccc(O)cc1)CC(=O)/C=C/c1ccc(O)cc1 [bisdemetoxicurcumin] | 90.6 µM | – | – | – | – | – | – | – | – | – | – | – | – | – | – | – |
